These results are taken from patent publication US7795307B2, “Carbamoyl esters that inhibit cholinesterase and release pharmacologically active agents” (priority 2003, dated 2010).

Series [1] concerns the target human recombinant acetylcholinesterase (Homo sapiens, UniProt P22303). The series is described as follows: biochemical. Particulars: 25° C., 30 minutes preincubation, 0.3 mM acetylthiocholine, Dixon plot.
Series [2] concerns total cholinesterase activity in the brain. As to the kind of experiment: Total cholinesterase activity in brain homogenate of rats after i.p. injection. As to conditions: for ChE inhibition: brain 3 hours after injection, relative to saline treated rats; for tolerability of the injected dose: i.p., male Wistar rats, dose giving a cholinergic behavioral effect with minimal side effects. The class given is in vivo, Male Wistar rats. On the procedure:
Animals were decapitated 3 hours after injection and the brains rapidly removed. The brain tissue was diced into small pieces, placed on ice and immediately homogenized with a Polytron PT1200 (Kinematic AG) in 10 ml ice cold Tris with 0.1% Triton-X and protease inhibitors. The protease inhibitors in the extraction buffer were Antipain (10 μM), Aprotinin (5 TIU/mg protein), Bestatin ([…]), Leupeptin (10 μM) and Pepstatin (1 μM). The final dilution of the homogenate in the final assay mixture was 120-fold.
Total cholinesterase activity was determined by a modification of the colorimetric method of Ellmann, et al. (Biochem. Pharmacol., 7:88-95 (1961)), as described above. Hydrolysis of acetylthiocholine was monitored indirectly by measurement of the formation of the conjugate between thiocholine and DTNB. Optical density at 405 nm was recorded during five (5) minutes employinga a microplate spectrophotometer (Polarstar, BMG Labtech), and plotted against time. The initial rates were calculated from the slope of the linear portion of the graph.
Cholinesterase activity was normalized for protein content of the homogenate. Relative cholinesterase activity was calculated as the ratio of normalized cholinesterase activity in a rat treated with a control compound or a carbamoyl ester over normalized cholinesterase activity in saline treated rats.

Chain of human recombinant acetylcholinesterase (P22303 32-614): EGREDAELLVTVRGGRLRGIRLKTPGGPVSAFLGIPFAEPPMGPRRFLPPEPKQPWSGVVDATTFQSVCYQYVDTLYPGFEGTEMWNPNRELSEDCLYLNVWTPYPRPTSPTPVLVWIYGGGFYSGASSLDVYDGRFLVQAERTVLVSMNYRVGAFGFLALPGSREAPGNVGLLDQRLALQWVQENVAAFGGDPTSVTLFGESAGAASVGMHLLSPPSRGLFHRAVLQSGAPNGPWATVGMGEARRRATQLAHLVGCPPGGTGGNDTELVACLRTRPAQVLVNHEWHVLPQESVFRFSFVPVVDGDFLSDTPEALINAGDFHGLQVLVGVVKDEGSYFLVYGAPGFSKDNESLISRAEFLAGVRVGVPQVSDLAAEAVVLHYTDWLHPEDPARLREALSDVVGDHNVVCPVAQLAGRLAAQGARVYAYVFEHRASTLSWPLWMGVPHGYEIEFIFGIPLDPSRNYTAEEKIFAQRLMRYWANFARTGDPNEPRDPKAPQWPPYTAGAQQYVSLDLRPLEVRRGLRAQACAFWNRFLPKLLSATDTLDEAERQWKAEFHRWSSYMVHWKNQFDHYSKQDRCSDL

Take `Cc1ccccc1O[C@H](CCN(C)C(=O)Oc1cccc([C@H](C)N(C)C)c1)c1ccccc1` [Compound 5]: the IC50 in series [1] worked out at 0.46 µM.

`C[C@H](Cc1ccccc1)N(C)C(=O)Oc1cccc([C@H](C)N(C)C)c1` [Compound 7] gave a ChE inhibition in series [2] (2 mg/kg i.p.) of 38%. Also, in series [2], the “tolerability of the injected dose” value is on record as “well-tolerated”.

In series [2] (8 mg/kg i.p.), `C[C@H](Cc1ccccc1)NC(=O)Oc1cccc([C@H](C)N(C)C)c1` [Compound 9] showed a ChE inhibition of 41%. The “tolerability of the injected dose” value in series [2] is “well-tolerated”.

For the compound `C[C@H](Cc1ccccc1)N(C)C(=O)Oc1ccc2c(c1)[C@]1(C)CCN(C)[C@@H]1N2C` [Compound 13], the IC50 in series [1] came out at 5.44 µM.

For the compound `C[C@H](Cc1ccccc1)NC(=O)Oc1ccc2c(c1)[C@]1(C)CCN(C)[C@@H]1N2C` [Compound 14], the IC50 in series [1] was determined as 0.253 µM.

`C[C@@H](Cc1ccccc1)NC(=O)Oc1cccc([C@H](C)N(C)C)c1` [Compound 20]: the IC50 in series [1] was 0.449 µM.

Turning to `CCN(C)C(=O)Oc1cccc([C@H](C)N(C)C)c1` [Rivastigmine, reference compound], the “tolerability of the injected dose” value in series [2] was “well-tolerated”.
